Consider two molecules from patent publication US20020068271A1, “Methods for identifying agents capable of modulating protein kinase C theta (PKC0) activity” (priority 1999, published 2002).

Entries after “also recorded” stand apart in the source; their conditions may differ. Residues, ends and D or L forms follow the SMILES beside them. *: point of attachment. Cbz = O=C(OCc1ccccc1)*

Experiment [1] deals with PKCθ-A/E-induced NF-κB. As to the kind of experiment: NF-κB-Luc reporter induced by constitutively active PKCθ-A/E in Jurkat cells. The experiment is classed as cell-based, human. The following applies: cultured 16 hr, MG132 0, 5, 10, 20 μM (FIG. 5a). The procedure:
(§1) Jurkat cells were transfected with an empty vector (−) or constitutively active PKCθ (10 μg) together with NF-κB-Luc (FIG. 5a) CD28RE/AP-1-Luc (FIG. 5b), or AP-1-Luc (FIG. 5c) reporter constructs (5 μg each). The cells were cultured for 16 hr with the indicated concentrations of the […] MG132 (0, 5, 10, 20 μM), lysed, and luciferase activity was quantified. FIG. 5d: Jurkat cells were transfected with wild type IKKα (5 μg) or IKKβ (2 μg) together with an empty vector (0) or increasing amounts of constitutively active PKCθ. Twenty-four hr later, the cells were stimulated with anti-CD3/CD28 antibodies or with TNFα. Immunoprecipitated IKKα or IKKβ were subjected to an in vitro kinase assay. Phosphorylated GST-IκBα/1-62 was detected by autoradiography (top panels). […] After 24 hr, cells were lysed and normalized luciferase activity was determined. FIG. 5f: The expression level of the transfected IKKs or PKCθ was assessed by Western blotting using c-Myc-(IKKα), Flag-(IKKβ), or PKCθ-specific antibodies.
(§2) Cell Culture, Transfection, and Reporter Assays. […] Transfected Jurkat cells were harvested after 24 hr, washed twice with PBS, lysed, and luciferase or β-galactosidase activities were determined. The results were expressed as arbitrary luciferase units normalized to β-galactosidase activity in the same cells. […]

For experiment [2], the system named is PKCθ-A/E-induced CD28RE/AP-1. Description: CD28RE/AP-1-Luc reporter induced by constitutively active PKCθ-A/E in Jurkat cells. To be noted: cultured 16 hr, MG132 0, 5, 10, 20 μM (FIG. 5b). The experiment is classed as cell-based, human. The procedure:
as §1, §2

Experiment [3] concerns BAD (Ser-136, Ser-112). As to the kind of experiment: Phosphorylation of BAD induced by Fas or combined CD3/CD28 ligation. The experiment is classed as cell-based. The source says: Thus, the invention provides methods for identifying inhibitors of PKCθ activity by determining the ability of a test agent to inhibit BAD phosphorylation by PKCθ or a BAD activity.
The test system of experiment [4] is NF-κB RelA (p65) nuclear translocation. Description: Nuclear translocation of RelA (p65) after anti-CD3/CD28 stimulation, Western blot of nuclear/cytoplasmic extracts. The following applies: Jurkat cells preincubated 15 min at 37° C., anti-CD3/CD28 stimulation (FIG. 4b). The experiment is classed as cell-based, human. The protocol: (§3) FIG. 4a: Jurkat T cells were cotransfected with CD28RE/AP-1-Luc (10 μg) and β-galactosidase plasmid (2 μg) reporters. Twenty hr later, cells were stimulated for 10 min with CD3- plus CD28-specific antibodies, in the presence or absence of rottlerin (Rott; 30 μM) or Gö6976 (Gö; 0.5 μM). Luciferase activity in cell lysates was determined. FIG. 4b Jurkat cells were incubated (15 min at 37° C.) in the absence or presence of rottlerin or Gö6976, and then stimulated with anti-CD3/CD28 antibodies or with TNFα (10 ng/ml) for the indicated times. Nuclear and cytoplasmic extracts were prepared, and protein from each fraction (5 μg) was analyzed by Western blotting with an anti-RelA antibody. FIG. 4c: Wild-type PKCθ-transfected Jurkat T cells were stimulated as in (a). Cell lysates were immunoprecipitated (IP) with normal rabbit serum (NRS) or with an anti-PKCθ antibody, and the in vitro enzymatic activity of PKCθ was measured in the presence or absence of rottlerin or Gö6976 (top panel). The membrane was immunoblotted with a PKCθ-specific antibody (bottom panel).
(§4) Subcellular Fractionation. To determine PKCθ redistribution, cells were fractionated into cytosolic or membrane fractions as described by Meller (1996) Mol. Cell. Biol. 16:5782-5791; and, SDS-PAGE-resolved proteins were immunoblotted with an HRP-conjugated anti-PKCθ monoclonal antibody (Transduction Laboratories). […]
In general terms: In western blotting, separated proteins are transferred to a membrane and probed.

In experiment [5] the test system is TNFα-induced NF-κB. As to the kind of experiment: NF-κB activity induced by TNFα in Jurkat cells. The experiment is classed as cell-based, human. The following applies: TNFα 10 ng/ml (FIG. 4b). The protocol:
as §3, §4

The test system of experiment [6] is CD28RE/AP-1 element of the IL-2 promoter. Description: CD28RE/AP-1-Luc reporter assay, anti-CD3/CD28-stimulated Jurkat T cells. The experiment is classed as cell-based. The following applies: Homo sapiens, read-out: inhibition of anti-CD3/CD28-stimulated activity of CD28RE/AP-1. The procedure:
as §3
Cell Culture, Transfection, and Reporter Assays. […] Transfected Jurkat cells were harvested after 24 hr, washed twice with PBS, lysed, and luciferase or β-galactosidase activities were determined. The results were expressed as arbitrary luciferase units normalized to β-galactosidase activity in the same cells.
(In a reporter assay the amount or activity of a reporter protein is the signal.)

Experiment [7] has as its target T1, PKCθ (Homo sapiens, UniProt Q04759). The following applies: in vitro and in intact T cells; cited from earlier work.
In experiment [8] the test system is T cells. Description: Fas-mediated T cell apoptosis. The experiment is classed as cell-based. The source says: PKCθ mediates a selective T cell survival signal via phosphorylation of BAD, a Bcl-2 family member. PKC-activating phorbol esters protect various cell types, including T cells, from apoptosis induced by the interaction of Fas with its ligand. However, before the instant invention, the mechanism of this protective effect as well as the identity of the PKC isoform(s) involved in this process were poorly understood. Studies analyzed the role of PKCθ selectively expressed in T lymphocytes in protecting T cells from Fas-mediated apoptosis. […] These events preceded the onset of cell apoptosis. […] Thus, the invention provides methods for identifying inhibitors of PKCθ activity by determining the ability of a test agent to inhibit PKCθ selective protection of T cells from Fas-mediated apoptosis.

The target of experiment [9] is T1, PKCθ. As to the kind of experiment: In vitro kinase assay of immunoprecipitated PKCθ (MBP substrate). The experiment is classed as biochemical. Set-up: expressed in transfected cells; host or cells: Jurkat (E6.1) human leukemic T cells. To be noted: immunoprecipitated PKCθ from wild-type PKCθ-transfected Jurkat T cells, inhibitor added to kinase reaction (FIG. 4c). The protocol:
as §3
Kinase Assays. […] ATP incorporation was determined using a STORM 860™ PhosphorImager (Molecular Dynamics). […]

T1 sequence (Q04759 whole entry, canonical isoform): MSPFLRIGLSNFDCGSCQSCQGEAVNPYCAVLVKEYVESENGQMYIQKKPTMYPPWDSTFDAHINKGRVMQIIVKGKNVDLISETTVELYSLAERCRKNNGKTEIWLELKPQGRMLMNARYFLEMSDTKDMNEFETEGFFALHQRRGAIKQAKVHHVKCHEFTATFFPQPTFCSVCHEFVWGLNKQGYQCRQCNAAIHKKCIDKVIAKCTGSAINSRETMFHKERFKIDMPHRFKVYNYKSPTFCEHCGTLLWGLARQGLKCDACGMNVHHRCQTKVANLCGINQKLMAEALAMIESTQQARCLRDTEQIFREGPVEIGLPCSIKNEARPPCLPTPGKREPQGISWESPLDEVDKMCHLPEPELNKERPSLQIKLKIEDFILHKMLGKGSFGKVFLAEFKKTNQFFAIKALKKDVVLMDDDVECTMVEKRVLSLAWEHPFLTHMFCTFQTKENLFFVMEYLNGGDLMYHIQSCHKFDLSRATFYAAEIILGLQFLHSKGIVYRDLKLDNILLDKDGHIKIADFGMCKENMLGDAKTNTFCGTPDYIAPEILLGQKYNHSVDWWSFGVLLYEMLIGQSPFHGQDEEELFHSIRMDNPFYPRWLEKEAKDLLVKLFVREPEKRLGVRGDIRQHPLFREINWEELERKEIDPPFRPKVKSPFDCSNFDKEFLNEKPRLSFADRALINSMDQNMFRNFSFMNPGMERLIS

`CC(C)C[C@@H](C=O)NC(=O)[C@H](CC(C)C)NC(=O)[C@H](CC(C)C)NC(=O)OCc1ccccc1` [MG132] (Cbz-Leu-Leu-Leu-aldehyde): the “PKCθ-A/E-induced activation of NF-κB” value in experiment [1] is “blocked in a dose-dependent manner”. Further, the “PKCθ-A/E-induced activation of CD28RE/AP-1” value in experiment [2] was “blocked in a dose-dependent manner; also recorded: inhibited”.
Turning to `CC(=O)c1c(O)c(C)c(O)c(Cc2c(O)c3c(c(C(=O)/C=C/c4ccccc4)c2O)OC(C)(C)C=C3)c1O` [rottlerin], the “phosphorylation of BAD on Ser-136 (and to a lesser extent on Ser-112)” value in experiment [3] is given as “selectively blocked”. In addition, the “receptor-stimulated nuclear translocation of RelA (p65)” value in experiment [4] is on record as “essentially blocked”. Also, the “inhibition of NF-κB activity induced by TNFα” value in experiment [5] is reported as “did not inhibit”. For the same molecule, the inhibition at 30 µM in experiment [6] is about 80%. In addition, the “inhibition of PKCθ function” value in experiment [7] is reported as “inhibits PKCθ function”. Further, the “synergy with an anti-Fas antibody to induce rapid T cell apoptosis” value in [8] is on record as “synergized”. For the same molecule, the “inhibition of CD3/CD28-induced PKCθ activity” value in experiment [9] is “considerably more effective than Gö6976”.
